According to patent US20230219965A1 (KSQ Therapeutics, Inc., priority 2020, published 2023):

Biological target: USP1/UAF1 enzyme (Homo sapiens, UniProt O94782)
Test: USP1/UAF1 deubiquitination assay (ubiquitin-rhodamine 110 substrate)
Assay type: biochemical
Conditions: read-out: USP1 IC50 (Ub-Rho)
Experimental: Certain Compounds of the Disclosure were assessed for USP1/UAF1 activity in a Ubiquitin Rhodamine assay modified from those described previously.
Deubiquitinase activity was measured using ubiquitin-rhodamine 110 as a substrate. Cleavage of the amide bond between rhodamine and the c-terminal glycine of ubiquitin yields an increase in fluorescence signal. The assay was conducted in 20 μl total volume of assay buffer (50 mM Tris-HCl, pH 7.8, 0.5 mM EDTA, 0.01% Bovine Serum Albumin, 1 mM DTT, 0.01% Tween-20), and 0.05 nM USP1/UAF1 enzyme. Reaction was initiated by addition of 150 nM Ubiquitin-rhodamine (Boston Biochem) substrate.
Compounds of the Disclosure, dissolved in DMSO were tested in dose response format, beginning at […].
The example compounds listed below were added to enzyme/assay buffer mix and incubated 10 min. Substrate mix was added, and reaction mix was read in kinetic mode for 30 min at Ex480/Em540 and IC50 response curves were plotted.
Data for all assay formats was calculated as percent inhibition compared with control wells. Percent inhibition was calculated using the following equation: % inhibition=100×[1−(X−min)/(max−min)], where X is the raw data readout, min is the average of the no enzyme control wells (n=32), max is the average of the DMSO control well (n=32). IC50 values were calculated using the standard four parameter curve fitting algorithm in either Prism GraphPad (La Jolla, Calif.) software, or Collaborative Drug Discovery (Burlingame, Calif.) CDD Vault. See Chem. Biol. 20(1): 55-62 (Jan. 24, 2013); Bioorg. Med. Chem. Lett. 23(20): 5660-5666 (Oct. 15, 2013).

USP1/UAF1 enzyme, sequence (O94782 whole entry): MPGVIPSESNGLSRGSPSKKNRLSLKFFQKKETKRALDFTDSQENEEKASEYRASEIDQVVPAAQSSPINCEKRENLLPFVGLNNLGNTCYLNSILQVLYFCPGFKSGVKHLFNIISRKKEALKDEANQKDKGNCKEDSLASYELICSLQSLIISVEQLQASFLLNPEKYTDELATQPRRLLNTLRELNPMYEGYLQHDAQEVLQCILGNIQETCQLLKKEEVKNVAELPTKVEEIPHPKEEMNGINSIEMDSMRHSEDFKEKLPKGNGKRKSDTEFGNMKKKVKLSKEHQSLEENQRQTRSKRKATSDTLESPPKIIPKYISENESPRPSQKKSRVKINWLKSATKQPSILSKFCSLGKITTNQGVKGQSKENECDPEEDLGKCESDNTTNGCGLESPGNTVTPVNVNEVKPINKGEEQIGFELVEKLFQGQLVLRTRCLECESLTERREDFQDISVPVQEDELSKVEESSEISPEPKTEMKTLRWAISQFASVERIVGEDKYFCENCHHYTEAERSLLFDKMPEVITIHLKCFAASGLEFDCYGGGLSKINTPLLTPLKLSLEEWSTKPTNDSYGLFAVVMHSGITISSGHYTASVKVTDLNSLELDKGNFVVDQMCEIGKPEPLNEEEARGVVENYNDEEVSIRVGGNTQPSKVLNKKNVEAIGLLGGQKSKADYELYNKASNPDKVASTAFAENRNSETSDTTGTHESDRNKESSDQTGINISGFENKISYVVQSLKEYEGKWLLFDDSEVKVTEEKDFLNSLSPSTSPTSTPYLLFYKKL
USP1/UAF1 enzyme, sequence (Q8TAF3 whole entry partner): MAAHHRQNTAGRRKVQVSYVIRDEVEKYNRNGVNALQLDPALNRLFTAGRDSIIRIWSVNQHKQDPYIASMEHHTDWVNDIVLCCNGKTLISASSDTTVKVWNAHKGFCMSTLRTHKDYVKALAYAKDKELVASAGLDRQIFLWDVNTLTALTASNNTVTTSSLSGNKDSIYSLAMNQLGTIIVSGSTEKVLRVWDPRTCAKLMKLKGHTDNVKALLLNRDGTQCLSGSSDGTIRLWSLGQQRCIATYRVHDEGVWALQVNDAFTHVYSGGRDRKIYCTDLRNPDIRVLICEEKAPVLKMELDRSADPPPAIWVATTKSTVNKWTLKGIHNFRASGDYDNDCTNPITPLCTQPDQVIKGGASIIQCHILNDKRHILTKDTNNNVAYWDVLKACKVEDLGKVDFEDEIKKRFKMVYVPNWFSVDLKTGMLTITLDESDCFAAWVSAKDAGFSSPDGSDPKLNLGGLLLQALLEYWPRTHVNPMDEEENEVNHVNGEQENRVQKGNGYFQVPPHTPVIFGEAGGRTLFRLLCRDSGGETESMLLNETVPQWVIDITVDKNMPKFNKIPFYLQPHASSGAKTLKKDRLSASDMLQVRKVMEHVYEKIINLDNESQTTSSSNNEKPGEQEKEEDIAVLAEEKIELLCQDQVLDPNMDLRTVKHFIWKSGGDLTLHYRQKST

Structure (SMILES) | IC50 [nM]
CC(C)n1ncc(Cl)c1-c1cc2n(n1)CCC(=O)N2Cc1ccc(OCc2ccccn2)cc1 [Example 226, 2-(4-chloro-1-isopropyl-1H-pyrazol-5-yl)-4-(4-(pyridin-2-ylmethoxy)benzyl)-6,7-dihydropyrazolo[1,5-α]pyrimidin-5(4H)-one] | 100 to 500
CCn1cc(C(F)(F)F)nc1-c1ccc(CN2C(=O)CCn3nc(-c4c(Cl)cnn4C(C)CO)cc32)cc1 (stereo not drawn) [Example 227, 2-(4-chloro-1-(1-hydroxypropan-2-yl)-1H-pyrazol-5-yl)-4-(4-(1-ethyl-4-(trifluoromethyl)-1H-imidazol-2-yl)benzyl)-6,7-dihydropyrazolo[1,5-α]pyrimidin-5(4H)-one] | 100 to 500
CCn1cc(C(F)(F)F)nc1-c1ccc(CN2C(=O)CCn3nc(-c4c(Cl)cnn4C(C)C)c(N)c32)cc1 [Example 229, 3-amino-2-(4-chloro-1-isopropyl-1H-pyrazol-5-yl)-4-(4-(1-ethyl-4-(trifluoromethyl)-1H-imidazol-2-yl)benzyl)-6,7-dihydropyrazolo[1,5-α]pyrimidin-5(4H)-one] | 100 to 500
CC(C)n1ncc(Cl)c1-c1cc2n(n1)CCC(=O)N2Cc1ccc(-n2ccc(N3CCOCC3)n2)cc1 [Example 230, 2-(4-chloro-1-isopropyl-1H-pyrazol-5-yl)-4-(4-(3-morpholino-1H-pyrazol-1-yl)benzyl)-6,7-dihydropyrazolo[1,5-α]pyrimidin-5(4H)-one] | > 500
CCn1cc(C(F)(F)F)nc1-c1ccc(CN2C(=O)CCn3nc(-c4ccnn4C(C)C)c(Cl)c32)cc1 [Example 268, 3-chloro-4-(4-(1-ethyl-4-(trifluoromethyl)-1H-imidazol-2-yl)benzyl)-2-(1-isopropyl-1H-pyrazol-5-yl)-6,7-dihydropyrazolo[1,5-α]pyrimidin-5(4H)-one] | > 500
CCn1cc(C(F)(F)F)nc1-c1ccc(NC2CCCn3nc(-c4ccnn4C(C)C)c(Cl)c32)cc1F (stereo not drawn) [Example 269, 3-chloro-N-(4-(1-ethyl-4-(trifluoromethyl)-1H-imidazol-2-yl)-3-fluorophenyl)-2-(1-isopropyl-1H-pyrazol-5-yl)-4,5,6,7-tetrahydropyrazolo[1,5-α]pyridin-4-amine] | > 500
CC(C)n1ncc(Cl)c1-c1cc2n(n1)CCC(=O)N2Cc1ccc(-c2cncc(C(F)(F)F)n2)c(Cl)c1 [Example 272] | > 500
CC(C)n1ncc(Cl)c1-c1cc2n(n1)CCC(=O)N2Cc1ccc(-c2nccc(C(F)(F)F)n2)c(Cl)c1 [Example 273] | > 500
Cc1nc(-c2ccc(CN3C(=O)CCn4nc(-c5c(Cl)cnn5C(C)C)cc43)cc2Cl)cn1C [Example 277] | > 500
Cc1ccnnc1-c1ccc(CN2C(=O)CCn3nc(-c4c(Cl)cnn4C(C)C)cc32)cc1Cl [Example 278] | > 500
CC(C)n1ncc(Cl)c1-c1cc2n(n1)CCC(=O)N2Cc1ccc(-c2ncccc2OC(F)(F)F)c(Cl)c1 [Example 279] | > 500
Cc1ccn2ncnc(-c3ccc(CN4C(=O)CCn5nc(-c6c(Cl)cnn6C(C)C)cc54)cc3Cl)c12 [Example 280] | > 500
Cc1cc(-c2ccc(CN3C(=O)CCn4nc(-c5c(Cl)cnn5C(C)C)cc43)cc2Cl)n(C)n1 [Example 281] | > 500
Cc1ccc(F)c(-c2ccc(CN3C(=O)CCn4nc(-c5c(Cl)cnn5C(C)C)cc43)cc2Cl)n1 [Example 282] | > 500
CC(C)n1ncc(Cl)c1-c1cc2n(n1)CCC(=O)N2Cc1ccc(-c2ncccc2C(F)(F)F)c(Cl)c1 [Example 283] | > 500
Cc1ncc(-c2ccc(CN3C(=O)CCn4nc(-c5c(Cl)cnn5C(C)C)cc43)cc2Cl)n1C [Example 284] | > 500
COc1ccc(-c2ccc(CN3C(=O)CCn4nc(-c5c(Cl)cnn5C(C)C)cc43)cc2Cl)nc1 [Example 285] | > 500
COc1ccnc(-c2ccc(CN3C(=O)CCn4nc(-c5c(Cl)cnn5C(C)C)cc43)cc2Cl)n1 [Example 286] | > 500
CC(C)n1ncc(Cl)c1-c1cc2n(n1)CCC(=O)N2Cc1ccc(-c2nn(C)cc2C#N)c(Cl)c1 [Example 287] | > 500
Cc1nn(C)c(C)c1-c1ccc(CN2C(=O)CCn3nc(-c4c(Cl)cnn4C(C)C)cc32)cc1Cl [Example 289] | > 500
COc1ccnnc1-c1ccc(CN2C(=O)CCn3nc(-c4c(Cl)cnn4C(C)C)cc32)cc1Cl [Example 293] | > 500
COc1c(C)ccnc1-c1ccc(CN2C(=O)CCn3nc(-c4c(Cl)cnn4C(C)C)cc32)cc1Cl [Example 298] | 100 to 500
CC(C)n1ncc(Cl)c1-c1cc2n(n1)CCC(=O)N2Cc1ccc(-c2nccc3c2N(C)CCO3)c(Cl)c1 [Example 299] | > 500

The next lines start with the values.

IC50 [nM] | Structure (SMILES)
100 to 500 | CCn1cc(C#N)nc1-c1ccc([C@@H](C)N2C(=O)CCn3nc(-c4c(OC)ncnc4C4CC4)nc32)cc1 [Example 199]
< 100 | COc1ncnc(C2CC2)c1-c1nc2n(n1)CCC(=O)N2C(C)c1ccc(-n2nc(C(F)(F)F)cc2OCC(F)F)cc1 (stereo not shown) [Example 214]
100 to 500 | CC(c1ccc(-n2nc(C(F)(F)F)cc2OCC(F)F)cc1)N1C(=O)CCn2nc(-c3c(Cl)cnn3C(C)C)nc21 (stereo not shown) [Example 215]
100 to 500 | COc1ncnc(C2CC2)c1-c1nc2n(n1)CCC(=O)N2C(C)c1ccc(-c2nc(C(F)(F)F)cn2C(C)C)c(F)c1OC (stereo not shown) [Example 218]
< 100 | COc1ncnc(C2CC2)c1-c1nc2n(n1)CCC(=O)N2C(C)c1ccc(-c2ncccc2N(C)C)cc1 (stereo not shown) [Example 219]
< 100 | COc1ncnc(C2CC2)c1-c1nc2n(n1)CCC(=O)N2C(C)c1ccc(-c2ncccc2OC(C)C)cc1 (stereo not shown) [Example 220]
100 to 500 | CNCc1cc(C(F)(F)F)nn1-c1ccc(CN2C(=O)CCn3nc(-c4c(Cl)cnn4C(C)C)cc32)cc1 [Example 224, 2-(4-chloro-1-isopropyl-1H-pyrazol-5-yl)-4-(4-(5-((methylamino)methyl)-3-(trifluoromethyl)-1H-pyrazol-1-yl)benzyl)-6,7-dihydropyrazolo[1,5-α]pyrimidin-5(4H)-one]
100 to 500 | CNCc1cc(C(F)(F)F)nn1-c1ccc(CN2C(=O)CCn3nc(-c4c(OC)ncnc4C4CC4)cc32)cc1 [Example 225, 2-(4-cyclopropyl-6-methoxypyrimidin-5-yl)-4-(4-(5-((methylamino)methyl)-3-(trifluoromethyl)-1H-pyrazol-1-yl)benzyl)-6,7-dihydropyrazolo[1,5-a]pyrimidin-5(4H)-one]
100 to 500 | CC(C)n1cc(C(F)(F)F)nc1-c1ccc(CN2C(=O)CCn3nc(-c4c(Cl)cnn4C(C)C)nc32)cc1OCCO [Example 228, 2-(4-chloro-1-isopropyl-1H-pyrazol-5-yl)-4-(3-(2-hydroxyethoxy)-4-(1-isopropyl-4-(trifluoromethyl)-1H-imidazol-2-yl)benzyl)-6,7-dihydro-[1,2,4]triazolo[1,5-α]pyrimidin-5(4H)-one]
100 to 500 | CCn1cc(C(F)(F)F)nc1-c1ccc(CN2C(=O)C(NC(C)=O)Cn3nc(-c4c(Cl)cnn4C(C)C)cc32)cc1 (stereo not drawn) [Example 234, N-(2-(4-chloro-1-isopropyl-1H-pyrazol-5-yl)-4-(4-(1-ethyl-4-(trifluoromethyl)-1H-imidazol-2-yl)benzyl)-5-oxo-4,5,6,7-tetrahydropyrazolo[1,5-α]pyrimidin-6-yl)acetamide]
100 to 500 | CCn1cc(C(F)(F)F)nc1-c1ccc(NC2CCCn3nc(-c4c(Cl)cnn4C(C)C)nc32)cc1 (stereo not drawn) [Example 256, 2-(4-chloro-1-isopropyl-1H-pyrazol-5-yl)-N-(4-(1-ethyl-4-(trifluoromethyl)-1H-imidazol-2-yl)phenyl)-5,6,7,8-tetrahydro-[1,2,4]triazolo[1,5-α]pyridin-8-amine]
100 to 500 | CCn1cc(C(F)(F)F)nc1-c1ccc(N(C)C2CCCn3nc(-c4c(Cl)cnn4C(C)C)nc32)cc1F (stereo not shown) [Example 259]
100 to 500 | CCn1cc(C(F)(F)F)nc1-c1ccc(N(C)C2CCCn3nc(-c4c(Cl)cnn4C(C)C)nc32)cc1 (stereo not shown) [Example 260]
100 to 500 | CC(C)n1ncc(Cl)c1-c1cc2n(n1)CCC(=O)N2Cc1ccc(-c2ncccc2OC(F)F)c(Cl)c1 [Example 271, 2-(4-chloro-1-isopropyl-1H-pyrazol-5-yl)-4-(3-chloro-4-(3-(difluoromethoxy)pyridin-2-yl)benzyl)-6,7-dihydropyrazolo[1,5-α]pyrimidin-5(4H)-one]
100 to 500 | COc1nccnc1-c1ccc(CN2C(=O)CCn3nc(-c4c(Cl)cnn4C(C)C)cc32)cc1Cl [Example 274]
100 to 500 | Cc1cn2ccnc(-c3ccc(CN4C(=O)CCn5nc(-c6c(Cl)cnn6C(C)C)cc54)cc3Cl)c2n1 [Example 275]
100 to 500 | CC(C)n1ncc(Cl)c1-c1cc2n(n1)CCC(=O)N2Cc1ccc(-c2ncnn3cccc23)c(Cl)c1 [Example 276]
100 to 500 | COc1cn(C)nc1-c1ccc(CN2C(=O)CCn3nc(-c4c(Cl)cnn4C(C)C)cc32)cc1Cl [Example 292]
100 to 500 | COc1ncnc(C2CC2)c1-c1nc2n(n1)CCC(=O)N2Cc1ccc(-c2ncccc2OC(C)C)c(Cl)c1 [Example 295]
100 to 500 | CC(C)n1cc(F)nc1-c1ccc(CN2C(=O)CCn3nc(-c4c(Cl)cnn4C(C)C)cc32)cc1Cl [Example 297]
